Measurements as given in article PMC7586811 (Journal of Clinical Pharmacology, 2020).
Read-outs that look alike come from different tables or passages of the source.

Columns and labels:
[1] = Safety and tolerability in healthy participants; assay type: in vivo, human; conditions: for participants who experienced TEAEs: n = 18; for TEAEs considered related to the drug: investigator assessment
[2] = cited from earlier work
P‐glycoprotein (P‐gp) [3] = conditions: in vitro; ref data on file, Incyte Corporation; cited from earlier work
P‐glycoprotein (P‐gp) [4] = conditions: read-out: P‐gp inhibition IC50; in vitro; ref data on file, Incyte Corporation; cited from earlier work
[5] = dose range from 5 to 45 mg, relapsed or refractory B‐cell malignancies; cited from earlier work
major CYPs = conditions: earlier in vitro studies; cited from earlier work
[6] = not given; remark: listed apart in the source
CYP3A4 [7] = conditions: recombinant human CYP isozymes, earlier in vitro studies; cited from earlier work
[8] = phase 1/2 study; cited from earlier work
other PI3K isoforms = conditions: cited from earlier work
human OATP1B and OATP1B3 = conditions: in vitro; ref data on file, Incyte Corporation; cited from earlier work
[9] = clinical use; cited from earlier work
CYP3A4 [10] = conditions: human liver microsomes; ref data on file, Incyte Corporation; cited from earlier work
[11] = concomitant itraconazole 200 mg versus parsaclisib 10 mg alone
[12] = parsaclisib 10 mg single oral dose alone, fasted, healthy participants, n = 18
[13] = concomitant rifampin 600 mg versus parsaclisib 20 mg alone
[14] = parsaclisib 20 mg single oral dose alone, fasted, healthy participants, n = 18

Q: For `CCOc1c([C@H](C)n2nc(C)c3c(N)ncnc32)cc(Cl)c(F)c1[C@@H]1CNC(=O)C1` [Parsaclisib], which “dose interruptions or reductions, discontinuations, serious AEs, deaths due to TEAEs” value ([1]; both cohorts) is on record?
A: Its value is “No dose interruptions or reductions, participant discontinuations, serious AEs, or deaths due to TEAEs”.

Q: What about the “participants who experienced TEAEs” value ([1]; cohort 1: parsaclisib 10 mg + itraconazole 200 mg) of the same compound?
A: Its value is 27.8%.

Q: And the “participants with grade 4 TEAE (increased creatine phosphokinase)” value ([1]; cohort 2, day 44, not considered related to parsaclisib or rifampin)?
A: The value was 5.6%.

Q: And the “participants who experienced TEAEs” value ([1]; cohort 2: parsaclisib 20 mg + rifampin 600 mg)?
A: Its value is 44.4%.

Q: And the “TEAEs considered related to the drug” value ([1]; healthy participants)?
A: Its value is “No TEAE was considered related”.

Q: And the “participants reporting headache (most common TEAE)” value ([1]; of all 36 participants, all cases in cohort 2 (parsaclisib + rifampin))?
A: Its value is 13.9%.

Q: And the “overall safety and tolerability” value ([1]; single‐dose parsaclisib alone or combined with itraconazole or rifampin, healthy participants)?
A: The value was “safe and well tolerated”.

Q: What about the “decrease in geometric mean CL/F” value [11] of the same compound?
A: The value was “approximately 51%”.

Q: And the “increase in geometric mean AUC0‐∞” value [11]?
A: The value was 107%.

Q: And the “increase in geometric mean Cmax” value [11]?
A: The value was 21%.

Q: What about the “prolongation of mean t½,β” value [11] of the same compound?
A: Its value is 59%.

Q: And the “reduction of mean Vz/F” value [11]?
A: The value was “approximately 24%”.

Q: And the “CL/F, Geometric Mean” value [12]?
A: Its value is 2.9 L/h.

Q: And the “CL/F, Mean ± SD” value [12]?
A: Its value is 2.9 ± 0.3 L/h.

Q: What about the “increase in the exposure of parsaclisib” value (single 10‐mg dose, concomitant itraconazole) of the same compound?
A: Its value is “approximately 2 fold”.

Q: And the “major metabolites in clinical plasma samples” value ([2]; clinical plasma samples, ref data on file, Incyte Corporation)?
A: The value was “no major metabolites were detected”.

Q: And the “human‐specific metabolite” value ([2]; in vitro, rat, dog, and human)?
A: Its value is “no human‐specific metabolite identified”.

Q: And the “P‐gp substrate: concentration at which efflux transport is saturated” value (P‐glycoprotein (P‐gp) [3])?
A: The value was over 100 µM.

Q: And the IC50 (P‐glycoprotein (P‐gp) [4])?
A: The IC50 was 18.1 µM.

Q: And the “dose‐exposure relationship at steady state” value [5]?
A: The value was “linear”.

Q: What about the “inhibition of major CYPs” value (major CYPs) of the same compound?
A: The value was “not an inhibitor of major CYPs tested”.

Q: And the “decrease of AUC0‐∞” value [6, 13]?
A: The value was 77%.

Q: What about the “increase in geometric mean CL/F” value [6, 13] of the same compound?
A: The value was “approximately 4.4 fold”.

Q: What about the “reduction of Cmax” value [6, 13] of the same compound?
A: Its value is 43%.

Q: And the “shortening of mean t½,β” value [6, 13]?
A: Its value is 71%.

Q: And the “CL/F, Geometric Mean” value [6, 14]?
A: The value was 2.9 L/h.

Q: And the “CL/F, Mean ± SD” value [6, 14]?
A: The value was 3.0 ± 0.5 L/h.

Q: What about the “decrease in the exposure of parsaclisib” value ([6]; single 20‐mg dose, concomitant rifampin) of the same compound?
A: The value was “approximately 4 fold”.

Q: What about the “CYP isozyme responsible for metabolism” value (CYP3A4 [7]) of the same compound?
A: Its value is “primarily metabolized by CYP3A4”.

Q: What about the “dose‐limiting toxicities” value [8] of the same compound?
A: Its value is “no dose‐limiting toxicities identified”.

Q: And the “selectivity relative to other PI3K isoforms” value (other PI3K isoforms)?
A: The value was “approximately 20 000 fold”.

Q: And the “substrate of human OATP1B and OATP1B3” value (human OATP1B and OATP1B3)?
A: The value was “not likely a substrate”.

Q: With `C[C@H](Nc1ncnc2[nH]cnc12)c1cc2cccc(Cl)c2c(=O)n1-c1ccccc1` [duvelisib] as the compound, how does the associated toxicities [9] read?
A: The associated toxicities was “transaminitis (increased alanine and aspartate transaminase levels), colitis, diarrhea, and pneumonitis”.

Q: For `CC[C@H](Nc1ncnc2[nH]cnc12)c1nc2cccc(F)c2c(=O)n1-c1ccccc1` [idelalisib], which associated toxicities [9] is on record?
A: The associated toxicities was “transaminitis (increased alanine and aspartate transaminase levels), colitis, diarrhea, and pneumonitis”.

Q: With `CCC(C)n1ncn(-c2ccc(N3CCN(c4ccc(OCC5COC(Cn6cncn6)(c6ccc(Cl)cc6Cl)O5)cc4)CC3)cc2)c1=O` (stereo not shown) [itraconazole, Itraconazole, reference compound] as the compound, how does the “TEAEs considered related to the drug” value ([1]; healthy participants) read?
A: Its value is “No TEAE was considered related”.

Q: With `CC(=O)N1CCN(c2ccc(OCC3COC(Cn4ccnc4)(c4ccc(Cl)cc4Cl)O3)cc2)CC1` (stereo not shown) [ketoconazole] as the compound, how does the “effect on parsaclisib metabolism” value (CYP3A4 [10]) read?
A: Its value is “inhibited parsaclisib metabolism”.

Q: Which “participants reporting generalized pruritus and maculopapular rash” value ([1]; of all 36 participants, all in cohort 2, considered related to rifampin) does the source give for `CO[C@H]1/C=C/O[C@@]2(C)Oc3c(C)c(O)c4c(O)c(c(/C=N/N5CCN(C)CC5)c(O)c4c3C2=O)NC(=O)/C(C)=C\C=C\[C@H](C)[C@H](O)[C@@H](C)[C@@H](O)[C@@H](C)[C@H](OC(C)=O)[C@@H]1C` [rifampin, reference compound] here?
A: Its value is 5.6%.
